# Reference: patent US7998718B2, “Identification and functional characterization of a novel ribosomal S6 protein kinase” (Ludwig Institute for Cancer Research Ltd., priority 1998, dated 2011)
# B1: PDGF: PDGF BB growth factor purchased from Calbiochem (protein, UniProt P01127 82-190, looked up)
# Platelet-derived growth …: SLGSLTIAEPAMIAECKTRTEVFEISRRLIDRTNANFLVWPPCVEVQRCSGCCNNRNVQCRPTQVQLRPVQVRKIEIVRKKPIFKKATVTLEDHLACKCETVAAARPVT
# modifications: Platelet-derived growth factor subunit B
# notes: PDGF BB growth factor purchased from Calbiochem
# Experiments:
# p70α^S6k (p70α-I) [1] = assay: S6 kinase assay (40S subunits) on immunoprecipitates of transfected HEK293 cells treated with rapamycin or wortmannin; format: cell-based, rat; conditions: 30 min, HEK293 cells in DMEM with 10% FCS
# Experimental: (§1) FIG. 6A-6B. Effects of rapamycin and wortmannin on p70β^S6k and p70α^S6k. Effects of rapamycin and wortmannin on S6 phosphorylation activity of p70α-I or p70β-II. HEK293 cells were transfected with mock cDNA or plasmids containing FLAG-tagged p70β1 or p70β2 isoforms. After 48 h of transfection, cells were treated with vehicle or indicated concentrations of rapamycin or wortmannin for 30 min. After immunoprecipitation with anti-FLAG antibodies, the kinase activity was determined by a p70 S6 kinase assay using 40S subunits as substrates. The proteins of the reaction mixture were separated by SDS-PAGE, transferred onto PVDF membrane and analyzed by autoradiography (FIGS. 6A and 6B, upper panels). Subsequent immunoblotting with anti-FLAG antibody confirmed the expression of p70α-I (FIG. 6A, lower panel) and p70β-II (FIG. 6B, lower panel). A representative of three experiments is shown. ^32P incorporation into S6 was quantified by PhosphorImager and is expressed in arbitrary units (PI units).
# Materials and Methods. Restriction enzymes and DNA modification enzymes were obtained from standard commercial sources and used according to manufacturer's recommendations. Oligonucleotides which were used for sequencing of p70β^S6k and various PCR fragments were synthesized by Genosys or Japan Bioservice, Inc. The pcDNA1 and pcDNA3 mammalian expression vectors were from Invitrogen. […]
# p70β^S6k (p70β-II) = assay: as above; format: cell-based, human; conditions: 30 min, HEK293 cells in DMEM with 10% FCS
# Experimental: as §1
# Materials and Methods. Treatment of transfected cells with rapamycin or wortmannin was performed as follows: 48 h after transfection, the cells were treated with various concentrations of rapamycin or wortmannin for 30 min.
# Results. […] Thus, the effects of both inhibitors on p70β^S6k activity were examined. […]
# 40S ribosomal subunit = assay: In vitro S6 kinase assay of activated kinase variants expressed in HEK293 cells; format: biochemical; conditions: versus wild type p70α^S6k
# Experimental: Materials and Method. Activated variants of p70β^S6k and p70α^S6k were made by site-directed mutagenesis. Oligonucleotide primers, specific to the site to be mutated and complimentary to opposite strands of p70β^S6k and p70α^S6k sequences were generated as recommended by manufacturer (Stratagene). Site directed mutagenesis was carried out using pcDNA3/Glu-tag-p70β^S6k and pcDNA3/Glu-tag-p70α^S6k expression vector/plasmids as templates, according to the recommended protocol (Stratagene). All mutations were verified by DNA sequencing. Expression of mutated forms of both kinases was analyzed by immunobloting with anti-Glu-tag antibodies. The activity of normal and mutated forms of both kinases was measured by in vitro S6 kinase assay. 40S ribosomal subunit was used as a substrate in this reaction.
# We have generated an activated form of p70β^S6k by substituting putative phosphorylation site Thr 401 with Aspartic acid (Asp) (“p70β^S6k (T401D)”) as shown in FIG. 10.
# p70α^S6k (p70α-I) [2] = assay: Stimulation of S6 kinase activity in transfected CHO-IR cells; format: cell-based, rat; conditions: 10^-7 M insulin for 10 min, serum-starved CHO-IR cells
# Experimental: (§2) FIG. 5A. CHO-IR cells were transfected with mock (lane 1) or plasmids containing cDNAs of FLAG-tagged p70α-I (lanes 2 and 3) or FLAG-tagged p70β-II (lanes 4 to 7). After serum starvation for 16 hrs, cells were treated with the vehicle (lanes 2 and 4), 10^−7 M insulin for 10 min (lanes 3 and 5), 15% serum for 10 min (lane 6) or 500 nM TPA for 30 min (lane 7). After cell lysis and subsequent immunoprecipitation with anti-FLAG antibodies, immunoprecipitates were subjected to a p70 S6 kinase assay using 40S subunits as substrates. The reaction mixture was separated by SDS-PAGE, transferred onto PVDF membrane. The membrane was analyzed by autoradiography (upper panel) and then immunoblotted with anti-FLAG antibodies (lower panel). A representative of three experiments is shown. ^32P incorporation into S6 was quantified by Molecular Dynamics. PhosphorImager™ and is expressed in arbitrary units (PI units).
# (§3) Materials and Methods. HEK293 cells or CHO-IR cells were transfected with plasmids containing p70α^S6k and p70β^S6k sequences using lipofectAMINE under conditions recommended by the manufacturer (Gibco-BRL). Two days later, transfected cells were frozen in liquid nitrogen and stored until lysis. […]
# (§4) Results. […] The activation of p70β^S6k (p70β-II isoform) by insulin was analyzed in CHO-IR cells, which stably over expresses the insulin receptor. […]
# [3] = test system: p70β^S6k (p70β-II isoform); assay: as above; format: cell-based, human; conditions: serum-starved CHO-IR cells
# Experimental: as §2, §3, §4
# p70α^S6k = assay: Stimulation of S6 kinase activity by PDGF in transfected PAE-PDGF-R cells; format: cell-based, rat; conditions: 20 ng/ml PDGF BB for 20 min, serum-starved PAE-PDGF-R cells
# Experimental: (§5) FIG. 5B. Stimulation of the p70α^S6k and p70β^S6k activity towards ribosomal S6 protein by PDGF in PAE-PDGF-R cells. PAE-PDGF-R cells were transfected with EE-tagged p70α^S6k and p70β^S6k plasmids using lipofectAMINE. After 24 hr, transfected cells were serum-starved for 16 hr and stimulated with 20 ng/ml PDGF BB (Calbiochem) for 20 min. Control cells were treated with the vehicle under the same conditions. After immunoprecipitation with anti-EE antibodies, an in vitro kinase reaction was carried out in the presence of 40S subunits, containing the S6 protein. Reaction mixtures were separated by SDS-PAGE and incorporation of ^32P into S6 protein was measured by PhosphoImager.
# (§6) Materials and Methods. HEK293 cells or CHO-IR cells were transfected with plasmids containing p70α^S6k and p70β^S6k sequences using lipofectAMINE under conditions recommended by the manufacturer (Gibco-BRL). Two days later, transfected cells were frozen in liquid nitrogen and stored until lysis. After cell extraction, the lysates were subjected to immunoprecipitation and/or immunoblot analysis. If cells were to be stimulated, they were starved in medium without FCS for 16 h and then stimulated with 10^−7 M insulin for 10 min, 15% FCS for 10 min, 500 nM TPA for 30 min or vehicle alone. PAE-PDGF-R cells were transfected with appropriate plasmids using lipofect under conditions recommended by the manufacturer. […]
# [4] = test system: p70β^S6k (p70β-II isoform); assay: as above; format: cell-based, human; conditions: 20 ng/ml PDGF BB for 20 min, serum-starved PAE-PDGF-R cells
# Experimental: as §5, §6
molecule,measurement,setting,value
CO[C@H]1C[C@@H]2CC[C@@H](C)[C@@](O)(O2)C(=O)C(=O)N2CCCC[C@H]2C(=O)O[C@H]([C@H](C)C[C@@H]2CC[C@@H](O)[C@H](OC)C2)CC(=O)[C@H](C)/C=C(\C)[C@@H](O)[C@@H](OC)C(=O)[C@H](C)C[C@H](C)/C=C/C=C/C=C/1C [rapamycin],inhibition of the p70α^S6k,p70α^S6k (p70α-I) [1]; 20 nM rapamycin,92%
same,inhibition of p70β^S6k,p70β^S6k (p70β-II); 20 nM rapamycin,46%
p70α^S6k (T412D): activated version of p70α^S6k made by site-directed mutagenesis,S6 kinase activation compared with wild type kinase,40S ribosomal subunit,18 fold
insulin: hormone used to stimulate CHO-IR cells,activation of p70α^S6k activity,p70α^S6k (p70α-I) [2],3.5 fold
same,induction of p70β^S6k activity towards ribosomal S6 protein,[3]; 10^-7 M insulin for 10 min,2.8 fold
CCCCCCCCCCCCCC(=O)O[C@@H]1[C@@H](C)[C@@]2(O)[C@@H](C=C(CO)C[C@]3(O)C(=O)C(C)=C[C@@H]23)[C@@H]2C(C)(C)[C@]12OC(C)=O [TPA],stimulation of p70β^S6k phosphorylation of ribosomal protein S6,[3]; 500 nM TPA for 30 min,stimulated
COC[C@H]1OC(=O)c2coc3c2[C@@]1(C)C1=C(C3=O)[C@@H]2CCC(=O)[C@@]2(C)C[C@H]1OC(C)=O [wortmannin],inhibition of p70α^S6k activity,p70α^S6k (p70α-I) [1]; 100 nM wortmannin,86%
same,inhibition of p70β^S6k activity,p70β^S6k (p70β-II); 100 nM wortmannin,62%
B1,activation of p70α^S6k,p70α^S6k,3.4 fold
same,activation of p70β^S6k,[4],30 fold
